# Experimental data taken from ChEMBL document CHEMBL1153288, “1,3,4-Oxadiazole substituted naphthyridines as HIV-1 integrase inhibitors. Part 2: SAR of the C5 position” (Bioorg Med Chem Lett, 2009).
# How the values were obtained:
# [1] = Therapeutic index, CC50 for human 293T cells to EC50 for G-pseudotyped HIV; format: cell-based; conditions: read-out: Ratio CC50/EC50
# [2] = Inhibition of recombinant HIV integrase strand transfer activity; set-up: species or system Human immunodeficiency virus
# [3] = tested on: Human immunodeficiency virus; experiment: Antiviral activity against G-pseudotyped HIV expressed in 293T cells with pGI3Luci; format: functional, organism-based; conditions: Human immunodeficiency virus 1, HEK-293T
SMILES,selectivity ratio [1],IC50 [2] [nM],EC50 [3] [nM]
NC(=O)c1ccc(-c2nc(-c3nnc(Cc4ccc(F)cc4)o3)c(O)c3ncccc23)cc1,1220,6,10
Cc1ccccc1S(=O)(=O)Nc1nc(-c2nnc(Cc3ccc(F)cc3)o2)c(O)c2ncccc12,74,42,190
O=C(NCCCO)c1nc(-c2nnc(Cc3ccc(F)cc3)o2)c(O)c2ncccc12,> 30,71,470
O=C1CCCCCN1c1nc(-c2nnc(Cc3ccc(F)cc3)o2)c(O)c2ncccc12,> 411,25,34
CN(C)S(=O)(=O)Nc1nc(-c2nnc(Cc3ccc(F)cc3)o2)c(O)c2ncccc12,127,15,84
CN(C)C(=O)N1CCN(c2nc(-c3nnc(Cc4ccc(F)cc4)o3)c(O)c3ncccc23)C(=O)C1,120,23,87
CN(C)S(=O)(=O)c1ccc(-c2nc(-c3nnc(Cc4ccc(F)cc4)o3)c(O)c3ncccc23)cc1,218,18,9
O=S1(=O)CCCN1c1nc(-c2nnc(Cc3ccc(F)cc3)o2)c(O)c2ncccc12,> 129,8,110
CCOC(=O)C(=O)Nc1nc(-c2nnc(Cc3ccc(F)cc3)o2)c(O)c2ncccc12,10,33,1300
CNc1nc(-c2nnc(Cc3ccc(F)cc3)o2)c(O)c2ncccc12,30,74,400
CS(=O)(=O)c1ccccc1-c1nc(-c2nnc(Cc3ccc(F)cc3)o2)c(O)c2ncccc12,243,11,23
CC(C)NC(=O)c1ccc(-c2nc(-c3nnc(Cc4ccc(F)cc4)o3)c(O)c3ncccc23)cc1,95,4,13
CNC(=O)c1ccc(-c2nc(-c3nnc(Cc4ccc(F)cc4)o3)c(O)c3ncccc23)cc1,780,4,12
CNS(=O)(=O)c1ccccc1-c1nc(-c2nnc(Cc3ccc(F)cc3)o2)c(O)c2ncccc12,173,4,22
N#Cc1nc(-c2nnc(Cc3ccc(F)cc3)o2)c(O)c2ncccc12,–,240,> 35000
CN1CCN(c2nc(-c3nnc(Cc4ccc(F)cc4)o3)c(O)c3ncccc23)C1=O,> 466,15,30
Oc1c(-c2nnc(Cc3ccc(F)cc3)o2)nc(-c2cnccn2)c2cccnc12,24,20,170
O=C(O)c1cccc(-c2nc(-c3nnc(Cc4ccc(F)cc4)o3)c(O)c3ncccc23)c1,> 60,2,230
O=C(NCCO)c1nc(-c2nnc(Cc3ccc(F)cc3)o2)c(O)c2ncccc12,> 9,130,1490
NC(=O)c1nc(-c2nnc(Cc3ccc(F)cc3)o2)c(O)c2ncccc12,75,100,160
CC(=O)Nc1ccc(-c2nc(-c3nnc(Cc4ccc(F)cc4)o3)c(O)c3ncccc23)cc1,591,4,6
O=C(O)c1nc(-c2nnc(Cc3ccc(F)cc3)o2)c(O)c2ncccc12,> 3,860,4400
CN(C)C(=O)CN1CCN(c2nc(-c3nnc(Cc4ccc(F)cc4)o3)c(O)c3ncccc23)CC1,205,12,43

SMILES,selectivity ratio [1],IC50 [2] [nM],EC50 [3] [nM]
CN(C)C(=O)c1ccc(-c2nc(-c3nnc(Cc4ccc(F)cc4)o3)c(O)c3ncccc23)cc1,668,18,12
O=C1CN(c2nc(-c3nnc(Cc4ccc(F)cc4)o3)c(O)c3ncccc23)CCN1,844,7,17
Oc1c(-c2nnc(Cc3ccc(F)cc3)o2)nc(-c2ccncc2)c2cccnc12,200,8,35
CC(=O)N(C)c1nc(-c2nnc(Cc3ccc(F)cc3)o2)c(O)c2ncccc12,428,28,180
CS(=O)(=O)N1CCN(c2nc(-c3nnc(Cc4ccc(F)cc4)o3)c(O)c3ncccc23)CC1,162,19,38
Oc1c(-c2nnc(Cc3ccc(F)cc3)o2)nc(-c2ccccc2)c2cccnc12,49,29,36
CN1CCN(c2nc(-c3nnc(Cc4ccc(F)cc4)o3)c(O)c3ncccc23)S1(=O)=O,137,4,63
Oc1c(-c2nnc(Cc3ccc(F)cc3)o2)nc(-c2ccoc2)c2cccnc12,116,23,100
CS(=O)(=O)Nc1nc(-c2nnc(Cc3ccc(F)cc3)o2)c(O)c2ncccc12,131,19,110
Cc1ccn(-c2nc(-c3nnc(Cc4ccc(F)cc4)o3)c(O)c3ncccc23)n1,23,21,380
CN1CCN(C(=O)c2nc(-c3nnc(Cc4ccc(F)cc4)o3)c(O)c3ncccc23)CC1,> 144,44,97
Oc1c(-c2nnc(Cc3ccc(F)cc3)o2)nc(-c2ccc[nH]2)c2cccnc12,31,12,160
CN(C)S(=O)(=O)c1ccccc1-c1nc(-c2nnc(Cc3ccc(F)cc3)o2)c(O)c2ncccc12,67,4,29
O=C1NCCN1c1nc(-c2nnc(Cc3ccc(F)cc3)o2)c(O)c2ncccc12,311,12,45
CN(C)C(=O)C(=O)N(C)c1nc(-c2nnc(Cc3ccc(F)cc3)o2)c(O)c2ncccc12,> 40,85,310
CC(=O)Nc1nc(-c2nnc(Cc3ccc(F)cc3)o2)c(O)c2ncccc12,127,72,110
O=C1CCCCN1c1nc(-c2nnc(Cc3ccc(F)cc3)o2)c(O)c2ncccc12,> 160,88,87
CN1CCCN(c2nc(-c3nnc(Cc4ccc(F)cc4)o3)c(O)c3ncccc23)S1(=O)=O,294,6,31
CC(C)NS(=O)(=O)c1ccccc1-c1nc(-c2nnc(Cc3ccc(F)cc3)o2)c(O)c2ncccc12,295,12,8
O=S1(=O)CCCCN1c1nc(-c2nnc(Cc3ccc(F)cc3)o2)c(O)c2ncccc12,198,2,13
O=C(c1nc(-c2nnc(Cc3ccc(F)cc3)o2)c(O)c2ncccc12)N1CCC(O)CC1,> 65,27,220
O=C1CN(C(=O)c2nc(-c3nnc(Cc4ccc(F)cc4)o3)c(O)c3ncccc23)CCN1,–,74,> 14000
COCCNC(=O)c1nc(-c2nnc(Cc3ccc(F)cc3)o2)c(O)c2ncccc12,139,190,–
